From ChEMBL document CHEMBL4304804, “Synthesis and biological evaluation of calycanthaceous alkaloid analogs” (Bioorg Med Chem, 2019)
Values after ≈ are worked out from the molar mass of the structure shown. Active and inactive are the calls of the source. The rule behind the calls is not given here.

Key:
Escherichia coli = test: Antibacterial activity against Escherichia coli assessed as reduction in bacterial cell growth incubated for 24 hrs by filter paper assay; assay type: functional
[1] = test system: Colletotrichum orbiculare; test: Antifungal activity against Colletotrichum orbiculare assessed as reduction in fungal cell growth incubated for 48 hrs by serial dilution method; assay type: functional
Aspergillus flavus = test: Antifungal activity against Aspergillus flavus assessed as reduction in fungal cell growth incubated for 48 hrs by serial dilution method; assay type: functional
Candida [2] = test: Antifungal activity against […] assessed as reduction in fungal cell growth incubated for 48 hrs by serial dilution method; assay type: functional
Verticillium dahliae [3] = test: Antifungal activity against Verticillium dahliae assessed as reduction in fungal cell growth incubated for 48 hrs by serial dilution method; assay type: functional
Ralstonia solanacearum [4] = test: Antibacterial activity against Ralstonia solanacearum assessed as reduction in bacterial cell growth incubated for 24 hrs by filter paper assay; assay type: functional
Candida [5] = test: Antifungal activity against […] assessed as reduction in fungal spore germination at 500 ug/ml relative to control; assay type: functional
Penicillium citrinum = test: Antifungal activity against Penicillium citrinum assessed as reduction in fungal cell growth incubated for 48 hrs by serial dilution method; assay type: functional
Curvularia lunata [6] = test: Antifungal activity against Curvularia lunata assessed as reduction in fungal cell growth incubated for 48 hrs by serial dilution method; assay type: functional
Acetylcholinesterase = Acetylcholinesterase (Electrophorus electricus, UniProt O42275); test: Inhibition of electric eel AChE by Ellman's colorimetry
Acetylcholinesterase, sequence (O42275 whole entry): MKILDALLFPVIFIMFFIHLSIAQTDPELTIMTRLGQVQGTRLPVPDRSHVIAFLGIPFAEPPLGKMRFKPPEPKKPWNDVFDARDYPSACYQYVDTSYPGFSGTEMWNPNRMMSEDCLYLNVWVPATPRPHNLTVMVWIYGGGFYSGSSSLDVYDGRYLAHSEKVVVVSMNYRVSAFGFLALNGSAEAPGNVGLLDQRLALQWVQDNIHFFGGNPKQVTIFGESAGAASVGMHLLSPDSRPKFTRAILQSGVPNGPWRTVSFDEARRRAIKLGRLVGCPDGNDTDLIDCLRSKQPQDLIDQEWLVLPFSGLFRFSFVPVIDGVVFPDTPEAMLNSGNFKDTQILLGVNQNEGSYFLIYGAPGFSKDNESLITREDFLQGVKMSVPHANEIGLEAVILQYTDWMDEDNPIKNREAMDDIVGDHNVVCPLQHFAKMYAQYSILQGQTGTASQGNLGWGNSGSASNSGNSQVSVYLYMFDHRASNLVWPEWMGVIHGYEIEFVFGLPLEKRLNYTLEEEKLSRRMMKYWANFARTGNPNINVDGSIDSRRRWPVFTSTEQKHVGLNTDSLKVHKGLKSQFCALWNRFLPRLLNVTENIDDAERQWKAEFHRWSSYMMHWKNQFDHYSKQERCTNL

Pseudomonas aeruginosa = test: Antibacterial activity against Pseudomonas aeruginosa assessed as reduction in bacterial cell growth incubated for 24 hrs by filter paper assay; assay type: functional
Fusarium oxysporum = test: Antifungal activity against Fusarium oxysporum assessed as reduction in fungal cell growth incubated for 48 hrs by serial dilution method; assay type: functional
Aspergillus niger = test: Antifungal activity against Aspergillus niger assessed as reduction in fungal cell growth incubated for 48 hrs by serial dilution method; assay type: functional
[7] = test system: Fusarium oxysporum f. sp. vasinfectum; test: Antifungal activity against Fusarium oxysporum sp. vasinfectum assessed as reduction in fungal cell growth incubated for 48 hrs by serial dilution method; assay type: functional
Cryptococcus neoformans = test: Antifungal activity against Cryptococcus neoformans assessed as reduction in fungal cell growth incubated for 48 hrs by serial dilution method; assay type: functional
Candida tropicalis = test: Antifungal activity against Candida tropicalis assessed as reduction in fungal cell growth incubated for 48 hrs by serial dilution method; assay type: functional
Bacillus cereus = test: Antibacterial activity against Bacillus cereus assessed as reduction in bacterial cell growth incubated for 24 hrs by filter paper assay; assay type: functional
Staphylococcus aureus = test: Antibacterial activity against Staphylococcus aureus assessed as reduction in bacterial cell growth incubated for 24 hrs by filter paper assay; assay type: functional
Cytospora = test: Antifungal activity against Cytospora juglandis assessed as reduction in fungal cell growth incubated for 48 hrs by serial dilution method; assay type: functional
Curvularia lunata [8] = test: Antifungal activity against Curvularia lunata assessed as reduction in fungal cell growth at 250 ug/ml incubated for 48 hrs by serial dilution method relative to control; assay type: functional
Curvularia lunata [9] = test: Antifungal activity against Curvularia lunata assessed as reduction in fungal spore germination at 250 ug/ml relative to control; assay type: functional
Curvularia lunata [10] = test: Antifungal activity against Curvularia lunata assessed as reduction in fungal spore germination at 125 ug/ml relative to control; assay type: functional
Curvularia lunata [11] = test: Antifungal activity against Curvularia lunata assessed as reduction in fungal cell growth at 62.5 ug/ml incubated for 48 hrs by serial dilution method relative to control; assay type: functional
Curvularia lunata [12] = test: Antifungal activity against Curvularia lunata assessed as reduction in fungal cell growth at 125 ug/ml incubated for 48 hrs by serial dilution method relative to control; assay type: functional
[13] = biological target: Acetylcholinesterase (Electrophorus electricus) (UniProt O42275); test: Inhibition of electric eel AChE by at 1 mg/ml Ellman's colorimetry relative to control
Acetylcholinesterase (Electrophorus electricus), sequence (O42275 24-633 limits assumed): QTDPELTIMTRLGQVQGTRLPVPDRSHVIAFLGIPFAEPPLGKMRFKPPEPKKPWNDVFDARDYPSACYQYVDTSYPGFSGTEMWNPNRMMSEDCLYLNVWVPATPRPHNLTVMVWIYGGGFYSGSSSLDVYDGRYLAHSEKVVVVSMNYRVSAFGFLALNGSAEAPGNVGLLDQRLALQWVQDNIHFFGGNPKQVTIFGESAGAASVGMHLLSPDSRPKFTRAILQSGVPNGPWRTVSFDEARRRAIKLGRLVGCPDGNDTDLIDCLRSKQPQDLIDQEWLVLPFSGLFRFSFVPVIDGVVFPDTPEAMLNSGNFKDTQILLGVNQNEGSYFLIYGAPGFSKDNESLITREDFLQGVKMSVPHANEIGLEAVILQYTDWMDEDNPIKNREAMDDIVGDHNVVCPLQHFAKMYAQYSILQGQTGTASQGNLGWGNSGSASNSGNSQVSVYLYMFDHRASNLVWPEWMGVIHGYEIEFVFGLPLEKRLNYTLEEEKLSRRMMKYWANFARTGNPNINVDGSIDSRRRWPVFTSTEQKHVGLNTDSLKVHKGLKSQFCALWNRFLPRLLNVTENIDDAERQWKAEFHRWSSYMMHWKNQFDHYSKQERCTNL

Verticillium dahliae [14] = test: Antifungal activity against Verticillium dahliae assessed as reduction in fungal cell growth at 250 ug/ml incubated for 48 hrs by serial dilution method relative to control; assay type: functional
Verticillium dahliae [15] = test: Antifungal activity against Verticillium dahliae assessed as reduction in fungal cell growth at 62.5 ug/ml incubated for 48 hrs by serial dilution method relative to control; assay type: functional
Verticillium dahliae [16] = test: Antifungal activity against Verticillium dahliae assessed as reduction in fungal cell growth at 31.25 ug/ml incubated for 48 hrs by serial dilution method relative to control; assay type: functional
Verticillium dahliae [17] = test: Antifungal activity against Verticillium dahliae assessed as reduction in fungal cell growth at 125 ug/ml incubated for 48 hrs by serial dilution method relative to control; assay type: functional
Ralstonia solanacearum [18] = test: Antibacterial activity against Ralstonia solanacearum assessed as reduction in bacterial cell growth at 500 ug/ml incubated for 24 hrs by filter paper assay relative to control; assay type: functional

SMILES | MIC (Escherichia coli) | MIC [1] [µg/mL] | MIC (Aspergillus flavus) | MIC (Candida [2]) | MIC (Verticillium dahliae [3]) [µg/mL] | MIC (Ralstonia solanacearum [4]) | MIC (Penicillium citrinum) | MIC (Curvularia lunata [6]) | IC50 (Acetylcholinesterase) [µM] | MIC (Pseudomonas aeruginosa) | MIC (Fusarium oxysporum) | MIC (Aspergillus niger) | MIC [7] [µg/mL] | MIC (Cryptococcus neoformans) | MIC (Candida tropicalis) | MIC (Bacillus cereus) | MIC (Staphylococcus aureus) | MIC (Cytospora) [µg/mL] | inhibition [13] [%] | other results
CCCCCCCC(=O)N1CCC2(Cc3cccc(C)c3)c3ccccc3N(Cc3cccc(C)c3)C12 (stereo unspecified) | 250 µg/mL (≈ 505 µM) | 250 (≈ 505 µM) | 250 µg/mL (≈ 505 µM) | 31.2 µg/mL (≈ 63.2 µM) | 62.5 (≈ 126 µM) | 62.5 µg/mL (≈ 126 µM) | 250 µg/mL (≈ 505 µM) | 125 µg/mL (≈ 253 µM) | 87.9 | 125 µg/mL (≈ 253 µM) | 125 µg/mL (≈ 253 µM) | 250 µg/mL (≈ 505 µM) | 250 (≈ 505 µM) | 125 µg/mL (≈ 253 µM) | 125 µg/mL (≈ 253 µM) | 62.5 µg/mL (≈ 126 µM) | 125 µg/mL (≈ 253 µM) | 125 (≈ 253 µM) | – | inhibition at 500 µg/mL (Candida [5]): 87.5%
CCCCCCC(=O)N1CCCC2(O)c3ccccc3N(C)C12 (stereo unspecified) | 125 µg/mL (≈ 395 µM) | 250 (≈ 790 µM) | inactive | inactive | 62.5 (≈ 198 µM) | 62.5 µg/mL (≈ 198 µM) | inactive | 62.5 µg/mL (≈ 198 µM) | 4.2 | 250 µg/mL (≈ 790 µM) | 250 µg/mL (≈ 790 µM) | 250 µg/mL (≈ 790 µM) | 250 (≈ 790 µM) | 125 µg/mL (≈ 395 µM) | 250 µg/mL (≈ 790 µM) | 250 µg/mL (≈ 790 µM) | 62.5 µg/mL (≈ 198 µM) | 125 (≈ 395 µM) | – | inhibition at 250 µg/mL (Curvularia lunata [8]): 77.7%; inhibition at 250 µg/mL (Curvularia lunata [9]): 43.7%; inhibition at 125 µg/mL (Curvularia lunata [10]): 76.2%; inhibition at 62.5 µg/mL (Curvularia lunata [11]): 15.5%; inhibition at 125 µg/mL (Curvularia lunata [12]): 31.3%
Cc1ccccc1CN1c2ccccc2C2(Cc3ccccc3C)CCN(S(=O)(=O)c3ccccc3)C12 (stereo unspecified) | inactive | 250 (≈ 491 µM) | 250 µg/mL (≈ 491 µM) | 250 µg/mL (≈ 491 µM) | 125 (≈ 246 µM) | inactive | inactive | inactive | 0.275 | inactive | 250 µg/mL (≈ 491 µM) | 250 µg/mL (≈ 491 µM) | 250 (≈ 491 µM) | inactive | inactive | 125 µg/mL (≈ 246 µM) | inactive | 250 (≈ 491 µM) | > 80 | inhibition (Curvularia lunata [10]): Active
CCCCCCCC(=O)N1CCC2(Cc3ccccc3C)c3ccccc3N(Cc3ccccc3C)C12 (stereo unspecified) | 125 µg/mL (≈ 253 µM) | 250 (≈ 505 µM) | 250 µg/mL (≈ 505 µM) | 31.2 µg/mL (≈ 63.2 µM) | 31.2 (≈ 63.2 µM) | 62.5 µg/mL (≈ 126 µM) | 250 µg/mL (≈ 505 µM) | 125 µg/mL (≈ 253 µM) | 16.5 | 125 µg/mL (≈ 253 µM) | 125 µg/mL (≈ 253 µM) | 250 µg/mL (≈ 505 µM) | 250 (≈ 505 µM) | 62.5 µg/mL (≈ 126 µM) | 125 µg/mL (≈ 253 µM) | 62.5 µg/mL (≈ 126 µM) | 125 µg/mL (≈ 253 µM) | 125 (≈ 253 µM) | – | inhibition at 250 µg/mL (Verticillium dahliae [14]): 67.7%; inhibition at 62.5 µg/mL (Verticillium dahliae [15]): 47%; inhibition at 31.25 µg/mL (Verticillium dahliae [16]): 46.2%; inhibition at 125 µg/mL (Verticillium dahliae [17]): 63.4%
CCCCCCCC(=O)N1CCCC2(O)c3ccccc3N(C)C12 (stereo unspecified) | 62.5 µg/mL (≈ 189 µM) | 250 (≈ 756 µM) | 125 µg/mL (≈ 378 µM) | inactive | 62.5 (≈ 189 µM) | 31.2 µg/mL (≈ 94.6 µM) | inactive | 125 µg/mL (≈ 378 µM) | 0.363 | 250 µg/mL (≈ 756 µM) | inactive | 250 µg/mL (≈ 756 µM) | 250 (≈ 756 µM) | 125 µg/mL (≈ 378 µM) | inactive | 250 µg/mL (≈ 756 µM) | 62.5 µg/mL (≈ 189 µM) | 125 (≈ 378 µM) | – | inhibition at 500 µg/mL (Ralstonia solanacearum [18]): 100%
CN1c2ccccc2C2(O)CCCN(C(=O)c3ccc(F)cc3)C12 (stereo unspecified) | 250 µg/mL (≈ 766 µM) | 250 (≈ 766 µM) | 250 µg/mL (≈ 766 µM) | inactive | 250 (≈ 766 µM) | 125 µg/mL (≈ 383 µM) | 250 µg/mL (≈ 766 µM) | 125 µg/mL (≈ 383 µM) | 0.000306 | 250 µg/mL (≈ 766 µM) | 250 µg/mL (≈ 766 µM) | inactive | 250 (≈ 766 µM) | inactive | 250 µg/mL (≈ 766 µM) | inactive | 250 µg/mL (≈ 766 µM) | 250 (≈ 766 µM) | > 80 | –
CCCCCC(=O)N1CCCC2(O)c3ccccc3N(C)C12 (stereo unspecified) | 250 µg/mL (≈ 827 µM) | 250 (≈ 827 µM) | inactive | inactive | 125 (≈ 413 µM) | 125 µg/mL (≈ 413 µM) | inactive | 250 µg/mL (≈ 827 µM) | 7.57 | 250 µg/mL (≈ 827 µM) | 250 µg/mL (≈ 827 µM) | 250 µg/mL (≈ 827 µM) | 250 (≈ 827 µM) | 250 µg/mL (≈ 827 µM) | inactive | inactive | 125 µg/mL (≈ 413 µM) | 125 (≈ 413 µM) | > 80 | –
